Results as given in ChEMBL document CHEMBL1138844, “Synthesis and biological evaluation of 1-aryl-4,5-dihydro-1H-pyrazolo[3,4-d]pyrimidin-4-one inhibitors of cyclin-dependent kinases” (J Med Chem, 2004).

Legend:
[1] = target: Cyclin-dependent kinase 1/cyclin B (Homo sapiens, UniProt P06493); assay: Inhibition of Cyclin-dependent kinase 1-cyclin B; assay type: protein-complex assay
HCT-116 [2] = assay: Inhibition of human colon carcinoma cell (HCT116) proliferation; assay type: functional, cell-based
[3] = target: T1, Cyclin-dependent kinase 4/cyclin D1 (Homo sapiens, UniProt P11802); assay: Inhibition of Cyclin-dependent kinase 4-cyclin D1; assay type: protein-complex assay
T1 sequence (P11802 whole entry): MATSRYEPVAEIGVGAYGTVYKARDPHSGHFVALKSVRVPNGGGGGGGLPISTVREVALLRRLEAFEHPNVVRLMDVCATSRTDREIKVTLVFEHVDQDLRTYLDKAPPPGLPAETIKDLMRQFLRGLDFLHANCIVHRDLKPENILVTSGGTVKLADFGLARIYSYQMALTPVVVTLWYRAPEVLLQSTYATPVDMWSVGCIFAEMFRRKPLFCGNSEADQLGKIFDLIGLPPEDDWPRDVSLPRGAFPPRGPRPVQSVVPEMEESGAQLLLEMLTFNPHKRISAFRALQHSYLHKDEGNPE
T1 sequence (P24385 whole entry, further chain): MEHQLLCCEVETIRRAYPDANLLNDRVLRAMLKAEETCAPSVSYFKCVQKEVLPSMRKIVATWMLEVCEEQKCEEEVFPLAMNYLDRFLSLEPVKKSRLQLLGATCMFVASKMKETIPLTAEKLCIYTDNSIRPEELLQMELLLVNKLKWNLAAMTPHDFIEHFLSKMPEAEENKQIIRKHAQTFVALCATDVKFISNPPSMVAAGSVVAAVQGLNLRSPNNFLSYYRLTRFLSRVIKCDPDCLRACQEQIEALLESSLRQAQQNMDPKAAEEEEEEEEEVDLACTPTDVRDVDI

[4] = Partition coefficient (logP); assay type: physicochemical; settings: octanol/water
[5] = target: Cyclin-dependent kinase 2/cyclin E (Homo sapiens, UniProt P24941)
Description: Inhibition of Cyclin-dependent kinase 2-cyclin E

AG1523 = assay: Concentration required for growth inhibition of human fibroblast cell line Ag 1523; assay type: functional, cell-based
[6] = Inhibition of Protein Kinase A activity
HCT-116 [7] = assay: Concentration required for growth inhibition of human colon carcinoma cell line HCT116; assay type: functional, cell-based
[8] = target: Tyrosine-protein kinase ABL1 (Homo sapiens, UniProt P00519)
Tyrosine-protein kinase ABL1, sequence (P00519 whole entry): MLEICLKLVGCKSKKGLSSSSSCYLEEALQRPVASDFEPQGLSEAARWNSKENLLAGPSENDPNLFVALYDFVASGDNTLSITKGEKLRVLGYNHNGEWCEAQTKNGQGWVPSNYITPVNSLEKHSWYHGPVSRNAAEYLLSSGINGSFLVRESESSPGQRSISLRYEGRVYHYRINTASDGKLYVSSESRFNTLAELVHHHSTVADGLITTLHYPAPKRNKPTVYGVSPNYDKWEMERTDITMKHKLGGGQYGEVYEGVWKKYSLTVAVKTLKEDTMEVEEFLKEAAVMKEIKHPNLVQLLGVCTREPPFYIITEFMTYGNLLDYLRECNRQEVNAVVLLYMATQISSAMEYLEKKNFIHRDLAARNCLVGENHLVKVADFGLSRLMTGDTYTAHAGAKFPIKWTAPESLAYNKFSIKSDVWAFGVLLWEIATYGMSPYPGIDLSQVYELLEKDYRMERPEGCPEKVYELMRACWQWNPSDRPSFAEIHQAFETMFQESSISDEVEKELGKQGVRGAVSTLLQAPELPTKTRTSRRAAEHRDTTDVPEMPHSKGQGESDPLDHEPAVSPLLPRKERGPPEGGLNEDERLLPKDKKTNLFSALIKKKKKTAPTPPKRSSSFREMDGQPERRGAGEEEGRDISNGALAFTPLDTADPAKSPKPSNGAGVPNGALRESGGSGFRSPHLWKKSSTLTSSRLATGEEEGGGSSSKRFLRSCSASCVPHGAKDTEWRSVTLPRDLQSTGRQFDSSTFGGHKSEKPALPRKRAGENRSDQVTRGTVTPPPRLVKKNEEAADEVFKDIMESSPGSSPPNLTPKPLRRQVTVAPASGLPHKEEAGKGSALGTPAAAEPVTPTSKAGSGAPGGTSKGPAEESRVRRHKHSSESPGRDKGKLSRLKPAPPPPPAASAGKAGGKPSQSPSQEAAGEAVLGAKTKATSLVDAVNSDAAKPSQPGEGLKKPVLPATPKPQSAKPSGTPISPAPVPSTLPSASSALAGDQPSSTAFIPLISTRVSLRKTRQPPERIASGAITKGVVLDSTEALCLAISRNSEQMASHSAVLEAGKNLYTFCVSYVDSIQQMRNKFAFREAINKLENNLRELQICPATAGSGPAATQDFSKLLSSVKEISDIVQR
Description: Inhibition of c-Abl tyrosine kinase activity

[9] = target: T1, Cyclin-dependent kinase 4/cyclin D1; assay: Inhibition of Cyclin-dependent kinase 4/cyclin D1; assay type: protein-complex assay
HCT-116 [10] = assay: Inhibitory concentration against human colon cell line HCT116 was determined; assay type: functional, cell-based
[11] = Inhibitory concentration against human breast cell line MDA MB468 was determined; assay type: functional, cell-based; settings: mda-mb-468
A498 = assay: Inhibitory concentration against human kidney cell line A498 was determined; assay type: functional, cell-based
DU-145 = assay: Inhibitory concentration against human prostate cell line DU145 was determined; assay type: functional, cell-based
[12] = Inhibitory concentration against NCI H460 cell line was determined; assay type: functional, cell-based, Homo sapiens
MCF7 = assay: Inhibitory concentration against human breast cell line MCF-7 was determined; assay type: functional, cell-based
T47D = assay: Inhibitory concentration against human breast cell line T47D was determined; assay type: functional, cell-based
COLO 205 = assay: Inhibitory concentration against human colon cell line COLO 205 was determined; assay type: functional, cell-based

Compound	IC50 [1] [nM]	IC50 (HCT-116 [2]) [nM]	IC50 [3] [nM]	logP [4]	IC50 [5] [nM]	also measured
CCc1nn(-c2c(Cl)cc(Cl)cc2Cl)c2nc(Cc3ccc(NC(=O)CNC(=O)OC(C)(C)C)cc3)[nH]c(=O)c12	180	160	1700	4.9	10	
CN1CCC(c2c(O)cc(O)c3c(=O)cc(-c4ccccc4Cl)oc23)[C@@H](O)C1 (mixture of isomers)						IC50 (AG1523): 6700 nM; IC50 [6]: > 500000 nM; IC50 (HCT-116 [7]): 490 nM
CSc1nn(-c2c(Cl)cc(Cl)cc2Cl)c2nc(C)[nH]c(=O)c12	6200		2100		360	IC50 (AG1523): 9200 nM; IC50 [8]: 420000 nM; IC50 [6]: > 500000 nM; IC50 (HCT-116 [7]): 2500 nM; IC50 [9]: 2100 nM
CN[C@@H]1C[C@H]2O[C@@](C)([C@@H]1OC)n1c3ccccc3c3c4c(c5c6ccccc6n2c5c31)C(=O)NC4 [STAUROSPORINE]						IC50 (HCT-116 [7]): 6 nM
CCc1nn(-c2c(Cl)cc(Cl)cc2Cl)c2nc(Cc3ccc(NC(=O)CN)cc3)nc(O)c12	70	120	460	3.3	10	
CN(C)c1ccc(C(=C2C=CC(=[N+](C)C)C=C2)c2ccc(N(C)C)cc2)cc1.CN(C)c1ccc(C(=C2C=CC(=[N+](C)C)C=C2)c2ccc(N(C)C)cc2)cc1.CN=C1C=CC(=C(c2ccc(N(C)C)cc2)c2ccc(N(C)C)cc2)C=C1	100	30	590	4.2	10	IC50 (HCT-116 [10]): 34 nM; IC50 [11]: 12 nM; IC50 (A498): 57 nM; IC50 (DU-145): 15 nM; IC50 [12]: 16 nM; IC50 (MCF7): 14 nM; IC50 (T47D): 16 nM; IC50 (COLO 205): 13 nM

Continued, in another order:

IC50 [1] [nM]	IC50 (HCT-116 [2]) [nM]	IC50 [3] [nM]	logP [4]	IC50 [5] [nM]	Compound	also measured
150	420	2700	3.8	10	CCc1nn(-c2c(Cl)cc(Cl)cc2Cl)c2nc(Cc3ccc(N)cc3)[nH]c(=O)c12	
30	20	1300	3.9	9	CCc1nn(-c2c(Cl)cc(Cl)cc2Cl)c2nc(Cc3ccc(NC(C)=O)cc3)[nH]c(=O)c12	
260	600	3000		20	CCc1nn(-c2c(Cl)cc(Cl)cc2Cl)c2nc(Cc3ccccc3)[nH]c(=O)c12	
410	1700	5000		30	CCc1nn(-c2c(Cl)cc(Cl)cc2Cl)c2nc(Cc3cccc(OC)c3)[nH]c(=O)c12	
520	670	80		20	CCc1nn(-c2c(Cl)cc(Cl)cc2Cl)c2nc(Cc3ccc(C)c(O)c3)[nH]c(=O)c12	
> 510	610	4500		110	CCc1nn(-c2c(Cl)cc(Cl)cc2Cl)c2nc(Cc3ccc(OC)c(OC)c3)[nH]c(=O)c12	
870	2100	> 2100		60	CCc1nn(-c2c(Cl)cc(Cl)cc2Cl)c2nc(Cc3ccc(OC)c(C)c3)[nH]c(=O)c12	
> 270	500	> 2200		20	CCc1nn(-c2c(Cl)cc(Cl)cc2Cl)c2nc(Cc3ccc(O)c(C)c3)[nH]c(=O)c12	
